# Measurements as given in patent US20230107216A1, “PANTETHEINE DERIVATIVES AND USES THEREOF” (Comet Therapeutics, Inc., priority 2018, published 2023).
# Read-outs that look alike come from different tables or passages of the source.
# What was measured:
# [1] = system: Propionic Acidemia (PA) primary fibroblasts Tsi 6337; test: Mitochondrial respiration, XFe96 Extracellular Flux Analyzer (OCR/ECAR), PA fibroblasts Tsi 6337; format: cell-based; conditions: Homo sapiens, Fibroblast
# Description: The effect of the compounds of the present disclosure on mitochondrial respiration was measured with a XFe96 Extracellular Flux Analyzer (Seahorse Bioscience, Agilent Technologies) and Oxygen consumption Rate (OCR) and Extracellular acidification rate (ECAR) determined.
# Cell culture and treatments. Primary adherent fibroblasts were cultured in minimum essential medium (MEM) (Gibco, 25030081) supplemented with 2 mM L-Glutamine (Gibco, 25030081), 15% fetal bovine serum (FBS) (Gibco, 26400044) and 1% penicillin/streptomycin (Gibco, 5140122) at 37° C. and 5% CO2. Cells were collected for either passaging or experiment at ˜70-80% confluence. Cells were obtained by trypsinization and seeded at 20000 cells/well in cell culture microplates (Seahorse Bioscience, 101085-004) and allowed to adhere for 16 hours in culture media.
# By profiling different primary cells and/or optimizing their culture media or environmental components one can select cell lines and/or conditions that are appropriate for the biological or disease model. In the present example, 24 hours prior to OCR and ECAR profiling, media was changed to Dulbecco's Modified Eagle Medium (DMEM, Agilent Seahorse 103575-100) with the appropriate supplements for the different primary cells (10 mM glucose, 2 mM L-glutamine, 1 mM pyruvate, 10% FBS; 1 mM glucose, 2 mM L-glutamine, 1 mM pyruvate, 10% FBS; 10 mM glucose, 10% FBS; 5 mM glucose 10% FBS; 1 mM glucose 10% FBS). Cells used in this example were: Propionic Acidemia (PA) (GM00371, GM03590 Coriell Institute for Medical Research, Tsi 6337, Tsi 4626, Tsi 3618 Trans-Hit Bio), Methylmalonic Acidemia (MMA) (GM01673, Coriell Institute for Medical Research, Tsi 5224 Trans-Hit Bio), Branched chain ketoacid dehydrogenase kinase (BCKDK) (GM00612, GM00649 Coriell Institute for Medical Research), Subnormal activation of pyruvate dehydrogenase complex (PDH) (GM01503 Coriell Institute for Medical Research), Very long-chain acyl-CoA dehydrogenase (VLCAD) (GM17475), Leigh Syndrome (LS) (GM03672, GM13411 Coriell Institute for Medical Research), Pyruvate Carboxylase Deficiency (PC) (GM00444 Coriell Institute for Medical Research), Glutaric Acidemia-I (GA) (GM10653), Friedreich's Ataxia (FXN) (GM04078 Coriell Institute for Medical Research, Huntington's disease (HD) (GM21756 Coriell Institute for Medical Research), Ornithine Transcarbamylase Deficiency (OTC) (GM12756 Coriell Institute for Medical Research), Kearns-Sayre Syndrome (KSS) (GM06225 Coriell Institute for Medical Research).
# One hour before the assay, the cells were washed with freshly prepared unbuffered serum free-Seahorse XF Assay medium (Seahorse Bioscience, North America, USA, 103575-100) with the same supplements as for the previous 24 hour incubation.
# After baseline measurements of OCR, cells were challenged with compounds of the present disclosure at different concentrations (10 to 50 μM) or vehicle (DMSO, 0.1%) and a post-compound baseline was recorded. OCR was measured after sequentially adding to each well 1 μg/ml oligomycin (inhibitor of ATP synthase Sigma-Aldrich, 753531), then maximal OCR was determined with carbonyl cyanide 4-(trifluoromethoxy) phenylhydrazone (FCCP, Sigma-Aldrich, C2920), (uncoupler of oxidative phosphorylation) and 0.5 μM of rotenone (Sigma-Aldrich, R8875) plus antimycin A (Sigma-Aldrich, A8674) (inhibitors of mitochondrial complex I and III) for determination of rotenone-antimycin insensitive respiration together with Hoechst for nuclear staining in situ when normalized to cell counts. After the analysis and nuclear staining, the XFp microplate was transferred to the Cytation 5, and the nuclear images were captured, the individual nuclei were identified and counted by BioTek Gen5 software. Data were expressed as pmol of O2 per minute and normalized by nuclear staining and baselined to pre-compound addition.
# Assay conditions were as stated below.
# Assay specifics on assay conditions are indicated below when readouts were normalized to cell counts. […]
# [2] = system: primary fibroblasts (healthy controls and PA, MMA, BCKDK, PDH, VLCAD, LS, PC, GA, VLCFA, KSS, FXN, HD); test: Measurement of ROS (H2DCFDA) in primary fibroblasts; format: cell-based, human; conditions: Homo sapiens, procedure Example 812
# Description: Primary adherent fibroblasts were cultured in minimum essential medium (MEM) (Gibco, 25030081) supplemented with 2 mM L-Glutamine (Gibco, 25030081), 15% fetal bovine serum (FBS) (Gibco, 26400044) and 1% penicillin/streptomycin (Gibco, 5140122) at 37° C. and 5% CO2. Cells were collected for either passaging or experiment at ˜70-80% confluence. Cells were obtained by trypsinization and seeded in cell culture microplates either white plate (Thermo Fisher Scientific, 152028) for luminescent measurement or black plate (Thermo Fisher Scientific, 165305) for fluorescent based read out for different assays listed below. Cells were obtained by trypsinization and […] were seeded and allowed to adhere for 16-18 hours to have confluency around 70-80% in the cell well with culture media. After 24 hours prior to measurements (37° C., 5% CO2) media was changed to Dulbecco's Modified Eagle Medium (DMEM, Agilent Seahorse cat #103575-100) with the appropriate supplements as stated below.
# Primary fibroblasts assayed were Healthy controls (GM00041, GM05659, GM23974 Coriell Institute for Medical Research), Propionic Acidemia (PA) (GM00371, GM03590 Coriell Institute for Medical Research, Tsi 6337 Trans-Hit Bio), Methylmalonic Acidemia (MMA) (GM01673, Coriell Institute for Medical Research, Tsi 5224, Tsi 4290 Trans-Hit Bio), Branched chain ketoacid dehydrogenase kinase (BCKDK) (GM00612, GM00649 Coriell Institute for Medical Research), Subnormal activation of pyruvate dehydrogenase complex (PDH) (GM01503 Coriell Institute for Medical Research), Very long-chain acyl-CoA dehydrogenase (VLCAD) (GM17475), Leigh Syndrome (LS) (GM03672, GM13411 Coriell Institute for Medical Research), Pyruvate Carboxylase Deficiency (PC) (GM00444 Coriell Institute for Medical Research), Glutaric Acidemia-I (GA), Impaired VLCFA oxidation (VLCFA) (GM13262), Kearns-Sayre Syndrome (KSS) (GM06225 Coriell Institute for Medical Research), Friedreich's Ataxia (FXN), Huntington's disease (HD) (GM21756 Coriell Institute for Medical Research). Next, cells were treated with compounds (10 μM) and ROS H2DCFDA (22 μM) dye for 2 hours in PA, MMA lines and for 24h for the other fibroblast lines. Kinetic read was started immediately with a i3x plate reader (492/527 nm) for 60 minutes.
# A total dead cell count was performed as described in Example 817 and only alive cells were used for analysis.
# [3] = system: Methylmalonic Acidemia (MMA) primary fibroblasts Tsi 5224; test: Mitochondrial respiration, XFe96 Extracellular Flux Analyzer (OCR/ECAR), MMA fibroblasts Tsi 5224; format: cell-based; conditions: Homo sapiens, Fibroblast;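 as to Increase in Maximal Respiratory Capacity AUC: relative to vehicle DMSO control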
# Method in brief: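 Primary fibroblasts (20000 cells/well) were held 24 h in supplemented DMEM before Seahorse OCR/ECAR profiling. Compounds at 10 to 50 μM or 0.1% DMSO were injected after baseline, then oligomycin 1 μg/ml, FCCP, and rotenone/antimycin A 0.5 μM. Values were normalized to Hoechst nuclear counts, baselined to pre-compound, and expressed relative to vehicle.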
# [4] = system: monocyte-derived M1 macrophages; test: M1 differentiation assay (macrophage TNFα, IL6, IL10 ELISA, FACS); format: cell-based, human
# Description: Monocytes were isolated by positive isolation with CD14+ microbeads (Miltenyi, 130-050-201). Monocytes were 99% viable and were 96% purity as analyzed by FACS and CD14+ (BD, 563561). 100,000 monocytes along with compounds at the dose of 10 and 50 μM were allowed to differentiate to macrophages with 10 ng/ml GMCSF (R&D, 15-GM-050/CF) in RPMI complete media (Invitrogen, 22400089) with 15% FBS (Hyclone SV30087.03) and 1% Penicillin-Streptomycin (Gibco, 15140-122). On day 2 and 4 half the media was refreshed with fresh GM-CSF and compounds at 10 and 50 μM dose. On day 6 the macrophages were matured with GMCSF, IFNγ (R&D 285-IF-100/CF) and LPS (Sigma, L6143) in the presence of 10 μM and 50 μM of compounds. After 24h, supernatant was collected for the measurement of TNFα (DKW, 1117202) IL6 (DKW, 1110602), IL10 (DKW, 1110003) by ELISA. Macrophages were detached gently on ice with EDTA (Invitrogen, 15575-038) and analyzed by FACS (BD LSR Fortessa, 853492). Cells were stained for live/dead dye, surface and intracellular markers with fixation/permeabilization solution (BD, 554714) and ALIVE/DEAD™ Fixable Near-IR Dead Cell Stain Kit (BD, L34976), mouse anti human CD86 APC (BD, 555660), mouse anti-human CD163 PE (BD, 556018), mouse anti-human CD68 FITC (BD, 562117) or isotype controls anti-mouse IgG1 κ PE (BD, 559320) and anti-mouse IgG1 κ APC (BD, Anti mouse IgG1 κ APC (BD, 55571). Mature M1 macrophages were defined as CD86+CD68+CD163− and increase in TNFα, IL6, and decrease in IL-10.
# [5] = PA Tsi 6337, assay condition A (10 mM glucose, 2 mM L-glutamine, 1 mM pyruvate, 10% FBS), read-out: Increase in Maximal Respiratory Capacity AUC
# [6] = FXN GM04078, Assay Condition C, read-out: Decreased ROS by at least 10%
# [7] = FXN GM04078, Assay Condition C, read-out: Decreased ROS by at least 30%
# [8] = MMA Tsi 5224, assay condition A (10 mM glucose, 2 mM L-glutamine, 1 mM pyruvate, 10% FBS), read-out: Increase in Maximal Respiratory Capacity AUC
# [9] = PA Tsi 6337, assay condition D (1 mM glucose, 10% FBS), read-out: Increase in Maximal Respiratory Capacity AUC
structure (smiles),measurement,setting,value
"CC[C@H](O)CC(=O)SCCNC(=O)CCNC(=O)[C@H](O)C(C)(C)CO [Compound 1249, (2R)-2,4-dihydroxy-N-{2-[(2-{[(3S)-3-hydroxypentanoyl]sulfanyl}ethyl)carbamoyl]ethyl}-3,3-dimethylbutanamide]",activation at 10 µM,[1]; [5],≥ 10%
same,inhibition at 10 µM,"[2]; Fibroblast, VLCAD GM17475, Assay Condition C, read-out: Decreased ROS by at least 10%",≥ 10%
same,inhibition at 10 µM,"[2]; Fibroblast, VLCAD GM17475, Assay Condition C, read-out: Decreased ROS by at least 30%",≥ 30%
same,inhibition at 10 µM,[2]; [6],≥ 10%
same,inhibition at 10 µM,[2]; [7],≥ 30%
CC(C)(COC(=O)CCC(=O)O)[C@@H](OC(=O)CCC(=O)O)C(=O)NCCC(=O)NCCSC(=O)CCC(=O)O [Compound 1233],activation at 10 µM,"[3]; MMA Tsi 5224, assay condition C (10 mM glucose, 10% FBS), read-out: Increase in Spare Capacity AUC",≥ 50%
same,activation at 10 µM,[1]; [5],≥ 10%
same,inhibition at 10 µM,"[2]; Fibroblast, BCKD GM00612, Assay Condition A, read-out: Decreased ROS by at least 10%",≥ 10%
same,inhibition at 10 µM,"[2]; Fibroblast, VLCFA GM13262, Assay Condition C, read-out: Decreased ROS by at least 30%",≥ 30%
same,inhibition at 10 µM,[2]; [6],≥ 10%
same,inhibition at 10 µM,[2]; [7],≥ 30%
CC(C)(CO)[C@@H](O)C(=O)NCCC(=O)NCCSC(=O)[C@@H](N)CC(=O)O [Compound 390],activation at 10 µM,[3]; [8],≥ 10%
same,activation at 10 µM,"[1]; PA Tsi 6337, assay condition D (1 mM glucose, 10% FBS), read-out: Increase in Spare Capacity AUC",≥ 10%
COC(=O)CCC(=O)SCCNC(=O)CCNC(=O)[C@H](O)C(C)(C)COC(=O)CN [Compound 1228],activation at 10 µM,[3]; [8],≥ 10%
same,activation at 10 µM,[1]; [5],≥ 10%
same,activation at 10 µM,[1]; [9],≥ 10%
COC(=O)CC(O)(CC(=O)OC)C(=O)SCCNC(=O)CCNC(=O)[C@H](O)C(C)(C)CO [Compound 418],activation at 10 µM,[1]; [9],≥ 10%
same,% decrease in Live Macrophage Cells,[4]; 50 uM,≥20%
same,activation at 10 µM,"[4]; Homo sapiens, Macrophage, 10 uM, read-out: % Increase in IL-10 Secretion",≥ 30%
same,inhibition at 10 µM,"[4]; Homo sapiens, Macrophage, 10 uM, read-out: % decrease in Macrophage IL-6 Secretion",≥ 30%
same,inhibition at 10 µM,"[4]; Homo sapiens, Macrophage, 10 uM, read-out: % decrease in Macrophage TNFα Secretion",≥ 30%
"CC(C(=O)SCCNC(=O)CCNC(=O)[C@H](O)C(C)(C)CO)[C@H](C)O (stereo partly drawn) [Compound 1248, (2R)-2,4-dihydroxy-N-{2-[(2-{[(3S)-3-hydroxy-2-methylbutanoyl]sulfanyl}ethyl)carbamoyl]ethyl}-3,3-dimethylbutanamide]",activation at 10 µM,[3]; [8],≥ 10%
same,activation at 10 µM,[1]; [5],≥ 10%
"COC(=O)C(=O)SCCNC(=O)CCNC(=O)[C@H](O)C(C)(C)COP(=O)(O)O [Compound 60, Methyl (R)-2-((2-(3-(2-hydroxy-3,3-dimethyl-4-(phosphonooxy)butanamido)propanamido)ethyl)thio)-2-oxoacetate]",activation at 10 µM,"[3]; MMA Tsi 5224, assay condition D (1 mM glucose, 10% FBS), read-out: Increase in Maximal Respiratory Capacity AUC",≥ 10%
same,activation at 10 µM,[1]; [9],≥ 10%
same,inhibition at 10 µM,"[2]; Fibroblast, KSS GM06225, Assay Condition C, read-out: Decreased ROS by at least 10%",≥ 10%
same,inhibition at 10 µM,"[2]; Fibroblast, KSS GM06225, Assay Condition C, read-out: Decreased ROS by at least 30%",≥ 30%
